Test results published in patent publication US20110052722A1, “Toleration Iron Supplement Compositions” (priority 2005, published 2011).

Experiments:
[1] = cited from earlier work
[2] = system: Sprague Dawley Crl:CD(SD) rats; experiment: Repeated daily oral gavage study in rats: hematology, serum iron, gross necropsy; assay type: in vivo; details: once per day oral gavage
Experimental: The test material solution or vehicle control was administered once per day by oral gavage administration, and individual dose volumes were calculated based on the most recent body weight data for each animal.
General health/mortality and moribundity checks were performed twice daily, and detailed clinical observations were performed on days 1, 8, and 15 prior to dosing. Hematology parameters were evaluated for all animals on days 1, 7, and 14. Blood collection for serum iron concentration evaluation was performed on these days as well, and blood samples were obtained via the orbital plexus while the animals were under light isoflurane anesthesia. All animals were subjected to complete gross necropsy examination at scheduled euthanasia.
Blood samples for hematology testing were collected in volumes of about 200 μL in tubes containing anticoagulant K2EDTA, and were evaluated for red blood cell count (RBC), hemoglobin concentration (Hb), hematocrit (Hct), mean corpuscular volume (MCV), mean corpuscular hemoglobin concentration (MCHC), mean corpuscular hemoglobin (MCH), reticulocyte count (Retic), red blood cell morphology, white blood cell count (WBC), neutrophil count (Neut), lymphocyte count (Lymph), monocyte count (Mono), eosinophil count (Eos), and basophil count (Baso). Serum iron was measured by taking about 1 mL blood samples in a serum separator tube.

[3] = total administration should not exceed; cited from earlier work
[4] = versus ferrous sulfate and/or ferrous fumarate, Newton et al. 1980, Piccinni et al. 1982

Molecule | efficacy at increasing hemoglobin and hematocrit values [1, 4] | tolerability [1, 4] | gastrointestinal side effects ([1]; versus ferrous sulfate, Johnson et al., Niferex-150 in ESRD patients receiving EPOGEN) | immune response (segmented neutrophils, platelets, lymphocytes) ([2]; Group 2 500 mg Fe/kg, Group 3 250 + 250 mg Fe/kg, hematology days 1, 7, 14) | gross internal findings at necropsy ([2]; Group 2 500 mg Fe/kg, Group 3 250 + 250 mg Fe/kg, scheduled euthanasia) | serum iron levels ([2]; ferrous fumarate 500 mg Fe/kg (Group 2), ferrous fumarate 250 + PIC 250 mg Fe/kg (Group 3), blood on days 1, 7, 14) | toxicity limits [3] [mg/kg]
polysaccharide iron complex [PIC] | equivalent efficacy | better tolerated | fewer gastrointestinal side effects | – | – | – | –
O=C([O-])/C=C/C(=O)[O-].[Fe+2] [ferrous fumarate] | – | – | – | about the same | body fat depletion, thyroid nodules, reddened mandibular lymph nodes, reddened stomach mucosa, small thymus, foci on the thymus, and dark fecal matter | significant increases | 200 to 250
